Experimental data: PubChem BioAssay AID330 (DTP/NCI, 2004)
“And” between values parts separate entries of the source, which are not always exact repeats. Equal values may be shown once. Toxic doses and inconclusive results are not listed. Rule for the calls: active = survival T/C of 150% or more; inactive = T/C below 125% in these data.

Test system: P388 leukemia ip, CD2F1 mice, survival T/C
Test: NCI In Vivo Anticancer Drug Screen. Data for tumor model P388 Leukemia (intraperitoneal) in CD2F1 (CDF1) mice
Conditions: endpoint: median survival time, higher = longer survival
Method in brief: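 Mice carrying the transplanted tumor received test compound or vehicle. Survival was recorded in each group, and the value is the treated-group measurement divided by that of the vehicle-treated control group.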

[1] = dose: 50.0 mg/kg/injection, schedule: Q01DX005 (ip), vehicle: Klucel (hydroxypropylcellulose) (HPC)
[2] = dose: 100.0 mg/kg/injection, schedule: Q01DX005 (ip), vehicle: Klucel (hydroxypropylcellulose) (HPC)
[3] = dose: 200.0 mg/kg/injection, schedule: Q01DX005 (ip), vehicle: Klucel (hydroxypropylcellulose) (HPC)
[4] = dose: 100.0 mg/kg/injection, schedule: Q04DX003 (ip), vehicle: Klucel (hydroxypropylcellulose) (HPC)
[5] = dose: 200.0 mg/kg/injection, schedule: Q04DX003 (ip), vehicle: Klucel (hydroxypropylcellulose) (HPC)
[6] = dose: 12.5 mg/kg/injection, schedule: Q01DX009 (ip), vehicle: water
[7] = dose: 25.0 mg/kg/injection, schedule: Q01DX009 (ip), vehicle: water
[8] = dose: 50.0 mg/kg/injection, schedule: Q01DX009 (ip), vehicle: water
[9] = dose: 60.0 mg/kg/injection, schedule: Q01DX005 (ip), vehicle: saline with Tween-80
[10] = dose: 120.0 mg/kg/injection, schedule: Q01DX005 (ip), vehicle: saline with Tween-80
[11] = dose: 200.0 mg/kg/injection, schedule: Q01DX009 (ip), vehicle: Klucel (hydroxypropylcellulose) (HPC)
[12] = dose: 50.0 mg/kg/injection, schedule: Q01DX005 (ip), vehicle: saline with Tween-80
[13] = dose: 100.0 mg/kg/injection, schedule: Q01DX005 (ip), vehicle: saline with Tween-80
[14] = dose: 200.0 mg/kg/injection, schedule: Q01DX005 (ip), vehicle: saline with Tween-80
[15] = dose: 240.0 mg/kg/injection, schedule: Q01DX005 (ip), vehicle: saline with Tween-80
[16] = dose: 50.0 mg/kg/injection, schedule: Q01DX005 (ip), vehicle: saline
[17] = dose: 100.0 mg/kg/injection, schedule: Q01DX005 (ip), vehicle: saline
[18] = dose: 200.0 mg/kg/injection, schedule: Q01DX005 (ip), vehicle: saline

Measured: T/C

CCCCCNC(=O)CCC(NC(=O)c1ccc(N(C)Cc2cnc3nc(N)nc(N)c3n2)cc1)C(=O)O (configuration not stated)
inactive: dose: 400.0 mg/kg/injection, schedule: Q01DX009 (ip), vehicle: sodium bicarbonate 91 % of control
active: dose: 200.0 mg/kg/injection, schedule: Q01DX009 (ip), vehicle: sodium bicarbonate 155 % of control

O=C(OCC(Cl)(Cl)Cl)N1[C@@H]2C=C[C@@H](N1C(=O)OCC(Cl)(Cl)Cl)[C@@]13CCCCC21O3 (some centres not stated)
inactive: [1] 102 % of control | [2] 108 % of control | [3] 103 % of control

NC(=O)c1[nH]c(N=Nc2ccccc2)nc1N
inactive: [4] 102 % of control | [5] 102 % of control | dose: 400.0 mg/kg/injection, schedule: Q04DX003 (ip), vehicle: Klucel (hydroxypropylcellulose) (HPC) 103 % of control

Cc1cc([N+](=O)[O-])c(S(N)(=O)=O)c([N+](=O)[O-])c1
inactive: dose: 3.13 mg/kg/injection, schedule: Q01DX009 (ip), vehicle: water 96 % of control | dose: 6.25 mg/kg/injection, schedule: Q01DX009 (ip), vehicle: water 96 % of control | [6] 99 % of control | [7] 97 % of control | [8] 98 % of control

COC(=O)[C@H]1[C@H]2C[C@@H]3c4[nH]c5cc(OC)ccc5c4CCN3C[C@H]2C[C@@H](OC(=O)c2cc(OC)c(OC)c(OC)c2)[C@@H]1OC
inactive: dose: 0.25 mg/kg/injection, schedule: Q01DX009 (ip), vehicle: Klucel (hydroxypropylcellulose) (HPC) 100 % of control | dose: 0.5 mg/kg/injection, schedule: Q01DX009 (ip), vehicle: Klucel (hydroxypropylcellulose) (HPC) 97 % of control | dose: 1.0 mg/kg/injection, schedule: Q01DX009 (ip), vehicle: Klucel (hydroxypropylcellulose) (HPC) 97 % of control | dose: 2.0 mg/kg/injection, schedule: Q01DX009 (ip), vehicle: Klucel (hydroxypropylcellulose) (HPC) 95 % of control | dose: 4.0 mg/kg/injection, schedule: Q01DX009 (ip), vehicle: Klucel (hydroxypropylcellulose) (HPC) 96 % of control

CCOC(=O)CCSC(=O)NCCCCCCNC(=O)SCCC(=O)OCC
inactive: [1] 98 % of control | [2] 96 % of control | [3] 102 % of control

CCOC(=O)c1c(O)c(C)c(=O)n2c1[nH]c1cc(C)c(C)cc12
inactive: [9] 93 % of control | [10] 98 % of control

O=S(=O)(Cc1ccccc1)C(c1ccccc1)S(=O)(=O)Cc1ccccc1
inactive: dose: 50.0 mg/kg/injection, schedule: Q01DX009 (ip), vehicle: Klucel (hydroxypropylcellulose) (HPC) 96 % of control | dose: 100.0 mg/kg/injection, schedule: Q01DX009 (ip), vehicle: Klucel (hydroxypropylcellulose) (HPC) 91 % of control | [11] 100 % of control

O=C1NC(=O)c2ccc3c4ccc5c6c(ccc(c7ccc1c2c73)c64)C(=O)N(c1ccccc1)C5=O
inactive: dose: 6.25 mg/kg/injection, schedule: Q01DX005 (ip), vehicle: Klucel (hydroxypropylcellulose) (HPC) 99 % of control | dose: 12.5 mg/kg/injection, schedule: Q01DX005 (ip), vehicle: Klucel (hydroxypropylcellulose) (HPC) 101 % of control and 94 % of control | dose: 25.0 mg/kg/injection, schedule: Q01DX005 (ip), vehicle: Klucel (hydroxypropylcellulose) (HPC) 107 % of control | [1] 93 % of control | [2] 95 % of control | [3] 88 % of control

NS(=O)(=O)Cc1noc2ccc(F)cc12
inactive: [12] 93 % of control | [13] 104 % of control | [14] 103 % of control

c1ccc(-c2[nH]c3ccccc3c2-c2c(-c3ccccc3)[nH]c3ccccc23)cc1
inactive: dose: 50.0 mg/kg/injection, schedule: Q01DX009 (ip), vehicle: saline 100 % of control | dose: 100.0 mg/kg/injection, schedule: Q01DX009 (ip), vehicle: saline 96 % of control | dose: 200.0 mg/kg/injection, schedule: Q01DX009 (ip), vehicle: saline 98 % of control

Cc1cc(=O)[nH]c(=O)n1CCCN(C)CCCn1c(C)cc(=O)[nH]c1=O
inactive: [9] 99 % of control | [10] 103 % of control | [15] 102 % of control

C[Si](C)(Cn1ccc(=O)n(C[Si](C)(C)c2ccccc2)c1=O)c1ccccc1
inactive: dose: 81.0 mg/kg/injection, schedule: Q04DX002 (ip), vehicle: saline with Tween-80 100 % of control | dose: 162.0 mg/kg/injection, schedule: Q04DX002 (ip), vehicle: saline with Tween-80 104 % of control | dose: 324.0 mg/kg/injection, schedule: Q04DX002 (ip), vehicle: saline with Tween-80 106 % of control

COc1ccc2cc3ccncc3cc2c1OC
inactive: [6] 96 % of control | [7] 99 % of control | [8] 99 % of control | dose: 100.0 mg/kg/injection, schedule: Q01DX009 (ip), vehicle: water 97 % of control | dose: 200.0 mg/kg/injection, schedule: Q01DX009 (ip), vehicle: water 105 % of control

CCNC(=O)OCC1=C(COC(=O)NCC)C2OC1C(C(=O)OC)=C2C(=O)OC
inactive: dose: 3.13 mg/kg/injection, schedule: Q01DX009 (ip), vehicle: distilled water + Tween-80 100 % of control | dose: 6.25 mg/kg/injection, schedule: Q01DX009 (ip), vehicle: distilled water + Tween-80 98 % of control | dose: 12.5 mg/kg/injection, schedule: Q01DX009 (ip), vehicle: distilled water + Tween-80 100 % of control and 87 % of control | dose: 25.0 mg/kg/injection, schedule: Q01DX009 (ip), vehicle: distilled water + Tween-80 109 % of control

Cc1ccc(S(=O)(=O)C(CCS(C)(=O)=O)C(=O)c2ccccc2)cc1 (configuration not stated)
inactive: [9] 100 % of control and 93 % of control | [10] 92 % of control | [15] 88 % of control and 90 % of control and 91 % of control

c1cnn([B-]2(n3cccn3)n3ccc[n+]3[B-](n3cccn3)(n3cccn3)n3ccc[n+]32)c1
inactive: [9] 102 % of control | [10] 102 % of control | [15] 100 % of control

Cc1ccc(C(=O)N/N=C/c2cccc(C(N)=S)c2)cc1
inactive: dose: 100.0 mg/kg/injection, schedule: Q01DX001 (ip), vehicle: saline 88 % of control | dose: 200.0 mg/kg/injection, schedule: Q01DX001 (ip), vehicle: saline 87 % of control | dose: 400.0 mg/kg/injection, schedule: Q01DX001 (ip), vehicle: saline 86 % of control

C=C1N=NN(c2ccc(C)cc2)C1N1CCOCC1 (configuration not stated)
inactive: dose: 60.0 mg/kg/injection, schedule: Q01DX005 (ip), vehicle: Klucel (hydroxypropylcellulose) (HPC) 93 % of control | dose: 120.0 mg/kg/injection, schedule: Q01DX005 (ip), vehicle: Klucel (hydroxypropylcellulose) (HPC) 99 % of control | dose: 240.0 mg/kg/injection, schedule: Q01DX005 (ip), vehicle: Klucel (hydroxypropylcellulose) (HPC) 90 % of control

O=C(O)c1ccc(C(=O)NCCCN(CCCCN(CCCNC(=O)c2ccc(C(=O)O)c(O)c2O)C(=O)c2ccc(C(=O)O)c(O)c2O)C(=O)c2ccc(C(=O)O)c(O)c2O)c(O)c1O
inactive: [16] 99 % of control | [17] 101 % of control | [18] 99 % of control

COC(=O)c1cc(=O)nc(N/N=C/c2ccc3c(c2)OCO3)s1
inactive: dose: 12.5 mg/kg/injection, schedule: Q01DX005 (ip), vehicle: saline with Tween-80 99 % of control | dose: 25.0 mg/kg/injection, schedule: Q01DX005 (ip), vehicle: saline with Tween-80 94 % of control | [12] 94 % of control

O=S(=O)(SC(S(=O)(=O)c1ccccc1)S(=O)(=O)c1ccccc1)c1ccccc1
inactive: [11] 123 % of control | dose: 400.0 mg/kg/injection, schedule: Q01DX009 (ip), vehicle: Klucel (hydroxypropylcellulose) (HPC) 123 % of control

NCP1(=O)CNC(=O)NC1
inactive: [16] 116 % of control | [17] 103 % of control | [18] 113 % of control

CS1(C)=NC(=O)C2=C(N=1)c1ccccc1S2(=O)=O
inactive: [9] 97 % of control | [10] 94 % of control | [15] 89 % of control

Nc1nc(SCC(=O)O)[nH]c(=O)c1N
inactive: [12] 91 % of control | [13] 104 % of control | [14] 104 % of control

CCOC1=C(C#N)C(SC)=CS(C)(=O)=C1 (configuration not stated)
inactive: dose: 50.0 mg/kg/injection, schedule: Q04DX003 (ip), vehicle: Klucel (hydroxypropylcellulose) (HPC) 98 % of control | [4] 97 % of control | [5] 101 % of control

CNC1CC(C)(O)Cc2cc3c(c(O)c21)C(=O)c1c(O)cc2c(c1C3=O)OC1OC2(C)C(O)C(N(C)C)C1O (configuration not stated)
active: dose: 12.5 mg/kg/injection, schedule: Q01DX009 (ip), vehicle: other 153 % of control | dose: 25.0 mg/kg/injection, schedule: Q01DX009 (ip), vehicle: other 158 % of control
